# Test system: His6-avi-MBP-tagged POLE2
# Assay: Single-point nHU-MS with recombinant His6-avi-MBP-POLE2 bait, Jurkat extract
# Format: binding, human
# Settings: bait av-His6-MBP-tagged full-length POLE2; MS6_Varjosalo
# Source text: So far, our study only focused on a few hand-picked NPF motifs and studied them as short synthetic peptides. However, many other proteins may be present in the proteome that could bind to POLE2 and their putative NPF motifs are embedded in their natural structures that can greatly affect their binding properties. To investigate interactions between POLE2 and intact, full length proteins proteome-wide, we used nHU-MS experiments with recombinant His6-avi-MBP-tagged POLE2 as bait and purified His6-avi-MBP as a control. Even though we are aware that this recombinant POLE2 may bind to NPF motifs with a somewhat altered affinity, we assumed that this would affect all NPF motif-mediated interactions equally, allowing an unbiased affinity ranking of all identified partners. Single point nHU measurements were performed at 26 μM POLE2 concentration and the recovered supernatant was measured by label free proteomic MS measurements (Fig. 3A, Supplementary Figs. 8A, 9, Supplementary Data 1).
# Single-point nHU experiments with protein baits were carried out nearly identically with two key modifications. First, the resin saturation step was carried out by mixing 50 μl streptavidin resin with 0.5−1 ml 50 μM biotinylated protein solution and the mixture was incubated for 1.5 h at 4 °C with constant agitation. Second, instead of using estimated bait concentrations, we measured it experimentally. An extra aliquot of resin stock was prepared alongside the nHU samples that were identically processed that were used to eluate the immobilized proteins under harsh conditions, in order to experimentally quantify the Cbait by using densitometry of Coomassie stained SDS-PAGE that included a protein calibration series. For this, 50 μl bait-saturated resin aliquots were mixed with 200 μl 4x Laemmli Sample Buffer (120 mM Tris-HCl pH 7, 8% SDS, 100 mM DTT, 32% glycerol, 0.004% bromphenol blue, 1% β-mercaptoethanol), instead of cell extract. After 15 min incubation at 95 °C, these samples were analyzed by SDS-PAGE using protein calibration standard, made from recombinant MBP. Densitometry was carried out after Coomassie staining on raw Tif images by using Fiji ImageJ 1.53c and experimental bait concentration were determined by adjusting for molecular weight differences between MBP and MBP-POLE2 constructs.
# Samples were digested overnight at 37 °C.
Substance,BI,log2FC,pKapp
"PSASG [NUP214, endogenous full length prey protein]",0.2012,-0.3242,3.986
"DEGFK [ACACA, endogenous full length prey protein]",0.2013,-0.3242,3.986
PYCR1: endogenous full length prey protein,,-0.3412,
"PSTST [UBR5, endogenous full length prey protein]",0.2095,-0.3392,4.008

# Same assay, conditions: non-zero for significant partners; MS6_Varjosalo
row,Substance,pKapp_sign
1,"PSASG [NUP214, endogenous full length prey protein]",3.986
2,"DEGFK [ACACA, endogenous full length prey protein]",3.986
3,"PSTST [UBR5, endogenous full length prey protein]",4.008

# Same assay, conditions: significant apparent affinity of endogenous prey protein for POLE2 bait; single-point nHU-MS; Figure S11
row,Substance,pKapp_sign
1,TRIM25,4.096
2,"NPFK [CCDC134, endogenous full length prey protein]",4.219
3,RHRA [FIP1L1],4.277
4,"NPFQ [SSBP2, endogenous full length prey protein]",4.583
5,"TSPTSD [NUMB, endogenous full length prey protein]",4.316
6,"NPFT [NOSIP, endogenous full length prey protein]",4.058
7,QPLRH [OIP5],4.225
8,PSPST [EXO1],4.499
9,QDLGNI [CTSA],4.815
10,"PSASG [NUP214, endogenous full length prey protein]",3.986
11,ARLRH [AKNA],4.257
12,SLGEI [GYG1],4.703
13,PSVST [ZMYM1],4.45
14,"PVGGND [USP9X, endogenous full length prey protein]",4.835
15,LSVD [LEF1],4.471
16,PSASR [NUP188],4.034
17,RSVD [PLEKHA7],4.312
18,"DEGFK [ACACA, endogenous full length prey protein]",3.986
19,SSQSY [EIF4E2],4.429
20,SSNSQ [PNPT1],4.014
21,AGL,4.38
22,"PSASS [ERCC6L, endogenous full length prey protein]",4.421
23,"NSVD [PLEKHA5, endogenous full length prey protein]",4.548
24,"NPFA [WDR59, endogenous full length prey protein]",4.457

row,Substance,pKapp_sign
1,TTAATSV [SEC23IP],4.243
2,PPSSKVSSHS [CNTRL],4.363
3,TNSTSD [PIKFYVE],4.132
4,SLRED [INPP5K],4.539
5,PSSST [GIGYF2],4.1436
6,PSASM [RFWD3],4.618
7,"PSAST [EPN2, endogenous full length prey protein]",4.531
8,PVLGNI [SSBP3],4.288
9,PYCR1: endogenous full length prey protein,4.011
10,CRIPT,4.909
11,"PSTST [UBR5, endogenous full length prey protein]",4.008
12,TRIM27,4.707
13,KPKKPLTSSS [MAPRE1],4.964
14,"PSASS [TTF2, endogenous full length prey protein]",4.771
15,PAAST [NUP58],4.1
16,MIOS,4.5333
17,RARA [INKA1],5.687
18,KPTSTYSLSS [VIPAS39],4.13
19,ASVD [CPSF4],4.068
20,KDDY [DNAJC10],4.21
21,RSRSVS [ZNRF1],4.487
22,"NPFQ [MAPK1IP1L, endogenous full length prey protein]",4.047
23,"NPFI [DNAJA3, endogenous full length prey protein]",4.13

# From publication PMC12808100, “The non-catalytic DNA polymerase ε subunit is an NPF motif recognition protein” (Nature Communications, 2025)
